Data on 28 molecules can be found in US8901147B2, “Bi-heteroaryl compounds as Vps34 inhibitors” (Novartis AG, priority 2010, dated 2014).

In the experiment the target is recombinant human Vps34 (Homo sapiens, UniProt Q8NEB9). Briefly: Vps34 KinaseGlo assay. The class given is biochemical. The following applies: KinaseGlo luminescence ATP detection; PI/OG substrate; 1 μM ATP; room temperature; 8 concentrations, n=2. The protocol: It was then resuspended in 3% OctylGlucoside by vortexing and stored at 4° C. 5 μL of a mix of PI/OG with recombinant human Vps34 were added. Kinase reactions were started by addition of 5 μl of ATP-mix containing in a final volume 10 μL 10 mM TRIS-HCl pH 7.5, 3 mM MgCl2, 50 mM NaCl, 0.05% CHAPS, 1 mM DTT and 1 μM ATP, and occurred at room temperature. Reactions were stopped with 10 μl of KinaseGlo and plates were read 10 minutes later in a Synergy2 reader using an integration time of 0.1 seconds per well.
In general terms: In Kinase-Glo more light means more ATP remaining.

pIC50: −log10 of the molar value.

Chain of recombinant human Vps34 (Q8NEB9 whole entry): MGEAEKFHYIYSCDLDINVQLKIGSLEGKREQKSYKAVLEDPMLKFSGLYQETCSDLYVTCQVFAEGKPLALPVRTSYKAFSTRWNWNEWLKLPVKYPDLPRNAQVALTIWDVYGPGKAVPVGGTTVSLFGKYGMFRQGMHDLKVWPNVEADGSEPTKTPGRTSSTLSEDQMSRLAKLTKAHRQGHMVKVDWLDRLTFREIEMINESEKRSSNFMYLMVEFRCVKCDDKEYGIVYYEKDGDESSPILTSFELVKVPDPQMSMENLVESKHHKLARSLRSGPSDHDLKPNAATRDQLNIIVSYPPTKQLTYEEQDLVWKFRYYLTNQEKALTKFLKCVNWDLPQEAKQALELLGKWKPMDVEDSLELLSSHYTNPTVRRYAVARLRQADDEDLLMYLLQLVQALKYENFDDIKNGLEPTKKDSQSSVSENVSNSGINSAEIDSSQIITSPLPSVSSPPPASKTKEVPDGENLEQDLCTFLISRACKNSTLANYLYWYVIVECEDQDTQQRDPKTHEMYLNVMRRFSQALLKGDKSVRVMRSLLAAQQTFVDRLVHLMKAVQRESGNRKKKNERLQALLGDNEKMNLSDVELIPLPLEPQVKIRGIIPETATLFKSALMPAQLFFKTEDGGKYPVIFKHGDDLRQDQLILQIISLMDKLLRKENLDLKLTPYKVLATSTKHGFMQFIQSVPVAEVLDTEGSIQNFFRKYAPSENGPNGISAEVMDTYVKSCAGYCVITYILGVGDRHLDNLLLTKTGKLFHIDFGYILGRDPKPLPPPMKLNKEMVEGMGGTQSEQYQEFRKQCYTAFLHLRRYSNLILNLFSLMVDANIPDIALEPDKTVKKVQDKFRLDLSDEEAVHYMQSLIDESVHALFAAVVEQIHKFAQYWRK

As a reminder, the pIC50 is the IC50 on a negative log10 scale, so that one unit is a factor of ten. For the molecule `Nc1ncc(-c2ccnc(Nc3ccncc3)n2)c(CO)n1` [Example 23, [2′-Amino-2-(pyridin-4-ylamino)-4,5′-bipyrimidin-4′-yl]methanol], the negative-log IC50 (pIC50) is 6.88.
On to `c1cc(Nc2nccc(-c3cncnc3CC3CC3)n2)ccn1` [Example 10v, 4′-(cyclopropylmethyl)-N-(pyridin-4-yl)-4,5′-bipyrimidin-2-amine], for which the pIC50 is 6.67.
For `CS(=O)(=O)N[C@H]1CC[C@H](Nc2nccc(-c3cnc(N)nc3CC3CC3)n2)CC1` [Example 15b, N-((1r,4r)-4-(2′-amino-4′-(cyclopropylmethyl)-4,5′-bipyrimidin-2-ylamino)cyclohexyl)methanesulfonamide] the value was 6.70; for `CNc1ncc(-c2ccnc(Nc3cc(OC)cc(OC)c3)n2)c(CC2CC2)n1` [Example 14p, 4′-(cyclopropylmethyl)-N^2-(3,5-dimethoxyphenyl)-N^2′-methyl-4,5′-bipyrimidine-2,2′-diamine], 5.29.
`Nc1ccc(Nc2nccc(-c3cnc(N)nc3CC3CC3)n2)cc1` [Example 15u, N^2-(4-aminophenyl)-4′-(cyclopropylmethyl)-4,5′-bipyrimidine-2,2′-diamine]: the negative logarithm of the IC50 (pIC50) is 6.98.
Consider `Nc1ncc(-c2ccnc(Nc3nncs3)n2)c(CC2CC2)n1` [Example 15i, 4′-(cyclopropylmethyl)-N^2-(1,3,4-thiadiazol-2-yl)-4,5′-bipyrimidine-2,2′-diamine], for which the pIC50 is 6.03.
As to `CC(=O)Nc1ccc(Nc2nccc(-c3cnc(NCC(C)(C)O)nc3CC3CC3)n2)cc1` [Example 16f, N-(4-(4′-(cyclopropylmethyl)-2′-(2-hydroxy-2-methylpropylamino)-4,5′-bipyrimidin-2-ylamino)phenyl)acetamide], the pIC50 was 6.86.
The same measure for `CNc1ncc(-c2ccnc(N[C@H]3CC[C@H](NC(=O)OC(C)(C)C)CC3)n2)c(CC2CC2)n1` [Example 14i, tert-butyl (1r,4r)-4-(4′-(cyclopropylmethyl)-2′-(methylamino)-4,5′-bipyrimidin-2-ylamino)cyclohexylcarbamate]: 6.46; for `CCc1ncc(-c2ccnc(N[C@H]3CC[C@H](O)CC3)n2)c(CC2CC2)n1` [Example 6d, (1r,4r)-4-(4′-(cyclopropylmethyl)-2′-ethyl-4,5′-bipyrimidin-2-ylamino)cyclohexanol]: 6.14.
As to `CNc1ncc(-c2ccnc(NC3CCC(O)CC3)n2)c(CC2CC2)n1` (stereo not shown) [Example 14k, 4-(4′-(cyclopropylmethyl)-2′-(methylamino)-4,5′-bipyrimidin-2-ylamino)cyclohexanol], the pIC50 was 6.07.
As to `CN(C)c1cccc(Nc2nccc(-c3cnc(N)nc3CC3CC3)n2)c1` [Example 15y, 4′-(cyclopropylmethyl)-N^2-(3-(dimethylamino)phenyl)-4,5′-bipyrimidine-2,2′-diamine], the pIC50 is 6.64.
Take `COc1ncc(-c2ccnc(NC3CCC(O)CC3)n2)c(CC2CC2)n1` (stereo not shown) [Example 6f, 4-(4′-(cyclopropylmethyl)-2′-methoxy-4,5′-bipyrimidin-2-ylamino)cyclohexanol]: the pIC50 was 5.40.
For the molecule `CNc1ncc(-c2ccnc(Nc3ccc(OC)cc3)n2)c(CC2CC2)n1` [Example 14m, 4′-(cyclopropylmethyl)-N^2-(4-methoxyphenyl)-N^2′-methyl-4,5′-bipyrimidine-2,2′-diamine], the negative logarithm of the IC50 (pIC50) is 6.92.
For `Cc1ncc(-c2ccnc(N[C@H]3CC[C@H](O)CC3)n2)c(CC2CC2)n1` [Example 6c, (1r,4r)-4-(4′-(cyclopropylmethyl)-2′-methyl-4,5′-bipyrimidin-2-ylamino)cyclohexanol] the value was 6.11.
For `CNc1ncc(-c2ccnc(Nc3ccccc3)n2)c(CC2CC2)n1` [Example 14b, 4′-(cyclopropylmethyl)-N^2′-methyl-N^2-phenyl-4,5′-bipyrimidine-2,2′-diamine] the value was 6.54; for `CC(=O)N[C@H]1CC[C@H](Nc2nccc(-c3cnc(N)nc3CC3CC3)n2)CC1` [Example 15a, N-((1r,4r)-4-(2′-amino-4′-(cyclopropylmethyl)-4,5′-bipyrimidin-2-ylamino)cyclohexyl)acetamide], 6.24.
For `C[C@H](CO)Nc1ncc(-c2ccnc(Nc3ccncc3)n2)c(CC2CC2)n1` [Example 10p, (R)-2-(4′-(cyclopropylmethyl)-2-(pyridin-4-ylamino)-4,5′-bipyrimidin-2′-ylamino)propan-1-ol] the value was 6.68.
Regarding `c1cc(Nc2nccc(-c3cnc(NC4CCOCC4)nc3CC3CC3)n2)ccn1` [Example 10g, 4′-(cyclopropylmethyl)-N^2-(pyridin-4-yl)-N^2′-(tetrahydro-2H-pyran-4-yl)-4,5′-bipyrimidine-2,2′-diamine], the negative logarithm of the IC50 (pIC50) was 6.63.
The same measure for `Nc1ncc(-c2ccnc(Nc3ccc(Cl)cn3)n2)c(CC2CC2)n1` [Example 15v, N^2-(5-chloropyridin-2-yl)-4′-(cyclopropylmethyl)-4,5′-bipyrimidine-2,2′-diamine]: 6.71; for `CNc1ncc(-c2ccnc(NC3CCC3)n2)c(CC2CC2)n1` [Example 14f, N^2-cyclobutyl-4′-(cyclopropylmethyl)-N^2′-methyl-4,5′-bipyrimidine-2,2′-diamine]: 6.14; for `CNc1ncc(-c2ccnc(Nc3ccncc3)n2)c(CC2CC2)n1` [Example 14c, 4′-(cyclopropylmethyl)-N^2′-methyl-N^2-(pyridin-4-yl)-4,5′-bipyrimidine-2,2′-diamine]: 7.43.
With `CC(C)(C)CNc1ncc(-c2ccnc(Nc3ccncc3)n2)c(CC2CC2)n1` [Example 10r, 4′-(cyclopropylmethyl)-N2′-neopentyl-N2-(pyridin-4-yl)-4,5′-bipyrimidine-2,2′-diamine], the pIC50 is 7.07.
As for `Nc1ncc(-c2ccnc(Nc3ccncc3)n2)c(COCc2ccccc2)n1` [Example 13, 4′-Benzyloxymethyl-N^2-pyridin-4-yl-[4,5′]bipyrimidinyl-2,2′-diamine], the pIC50 was 8.15.
The same measure for `Nc1ncc(-c2ccnc(NCCN3CCOCC3)n2)c(CC2CC2)n1` [Example 15s, 4′-(cyclopropylmethyl)-N^2-(2-morpholinoethyl)-4,5′-bipyrimidine-2,2′-diamine]: 5.78; for `CSc1ncc(-c2ccnc(Nc3ccncc3)n2)c(CC2CC2)n1` [Example 11, 4′-(Cyclopropylmethyl)-2′-(methylsulfanyl)-N-pyridin-4-yl-4,5′-bipyrimidin-2-amine]: 6.97.
For the molecule `CNc1ncc(-c2ccnc(Nc3ccc(OC)nc3)n2)c(CC2CC2)n1` [Example 14a, 4′-Cyclopropylmethyl-N^2-(6-methoxy-pyridin-3-yl)-N^2′-methyl-[4,5′]bipyrimidinyl-2,2′-diamine], the pIC50 was 6.94.
The same measure for `CNc1ncc(-c2ccnc(N[C@H]3CC[C@H](OC)CC3)n2)c(CC2CC2)n1` [Example 14o, 4′-(cyclopropylmethyl)-N^2-((1r,4r)-4-methoxycyclohexyl)-N^2′-methyl-4,5′-bipyrimidine-2,2′-diamine]: 6.43; for `COc1ncc(-c2ccnc(Nc3ccncc3)n2)c(CC2CC2)n1` [Example 10u, 4′-(cyclopropylmethyl)-2′-methoxy-N-(pyridin-4-yl)-4,5′-bipyrimidin-2-amine]: 7.04.
